Experimental data taken from ChEMBL document CHEMBL1133149, “Synthesis and biological evaluation of analogues of bacterial lipid I” (Bioorg Med Chem Lett, 2000).
In brackets after ≈: the same amount, converted by molar mass.

How the values were obtained:
[1] = Compound was evaluated for its ability to inhibit MraY enzyme for the conversion of Lipid I to lipid II in coupled MraY/MurG assay; NI is No Inhibition at 234 ug/mL; design: species or system Escherichia coli
[2] = (§1) Compound was evaluated for its ability to inhibit MurG enzyme for the conversion of Lipid I to lipid II in coupled MraY/MurG assay; NI is No Inhibition at 234 ug/mL; design: species or system Escherichia coli
Escherichia coli [3] = assay: Compound was evaluated for its ability to inhibit MurG enzyme for the conversion of Lipid I to lipid II in the coupled MraY/MurG assay; NI is No inhibition at 238 ug/mL
[4] = Compound was evaluated for its ability to inhibit MurG enzyme for the conversion of Lipid I to lipid II in MurG enzyme assay; design: species or system Escherichia coli
Escherichia coli [5] = assay: Compound was evaluated for its ability to inhibit the formation of peptidoglycan by incorporation of [14C]GlcNAc into TCA insoluble, filter-capturable material; NI is No Inhibition at 200 ug/mL; format: functional, organism-based
Escherichia coli [6] = assay: Compound was evaluated for its ability to inhibit MraY enzyme for the conversion of Lipid I to lipid II in the coupled MraY/MurG assay; Ni is No Inhibition at 238 ug/mL
Escherichia coli [7] = assay: Compound was evaluated for its ability to inhibit MurG enzyme for the conversion of Lipid I to lipid II in coupled MraY/MurG assay; NI is No Inhibition at 256 ug/mL
Escherichia coli [8] = assay: Compound was evaluated for its ability to inhibit MraY enzyme for the conversion of Lipid I to lipid II in the coupled MraY/MurG assay; Ni is No Inhibition at 256 ug/mL
Escherichia coli [9] = assay: Compound was evaluated for its ability to inhibit MurG enzyme for the conversion of Lipid I to lipid II in MurG enzyme assay; NI is No Inhibition at 256 ug/mL
Escherichia coli [10] = assay: Compound was evaluated for its ability to inhibit MraY enzyme for the conversion of Lipid I to lipid II in the coupled MraY/MurG assay; Ni is No Inhibition at 234 ug/mL
Escherichia coli [11] = assay: as §1
Escherichia coli [12] = assay: Compound was evaluated for its ability to inhibit MurG enzyme for the conversion of Lipid I to lipid II in MurG enzyme assay; NI is No Inhibition at 234 ug/mL

With `CC(=O)N[C@H]1[C@@H](O[C@@H]2O[C@H](CC(O)[C@H]3O[C@@H](n4ccc(=O)[nH]c4=O)[C@H](O)[C@@H]3O)[C@H](O)[C@H](O)[C@H]2NC(=O)/C=C/CC(C)C)O[C@H](CO)[C@@H](N)[C@@H]1O` (some centres undefined) [TUNICAMYCIN] the IC50 [1] was < 1 µg/mL.

In the case of RAMOPLANIN, the IC50 [2] is reported as < 1 µg/mL.

With `CC(=O)NC1C(OP(=O)(O)O)OC(CO)C(O)C1O[C@@H](C)C(=O)N[C@@H](C)C(=O)N[C@H](CCC(=O)N[C@@H](CCCCN)C(=O)N[C@H](C)C(=O)N[C@H](C)C(=O)O)C(=O)O` (some centres undefined) the Activity (Escherichia coli [3]) was “No inhibition”, the IC50 [4] was 50 µg/mL (≈ 59.3 µM) and the Activity (Escherichia coli [5]) was “No inhibition”. The Activity (Escherichia coli [6]) was “No inhibition”.

For `COC1OC(CO)C(O)C(O[C@@H](C)C(=O)N[C@@H](C)C(=O)N[C@H](CCC(=O)N[C@@H](CCCCN)C(=O)N[C@H](C)C(=O)N[C@H](C)C(=O)O)C(=O)O)C1NC(C)=O` (some centres undefined), the Activity (Escherichia coli [7]) was “No inhibition”, the Activity (Escherichia coli [8]) was “No inhibition” and the Activity (Escherichia coli [5]) was “No inhibition”. For the same compound, the Activity (Escherichia coli [9]) was “No inhibition”.

For `CC(=O)NC1C(Sc2ccccc2)OC(CO)C(O)C1O[C@@H](C)C(=O)N[C@@H](C)C(=O)N[C@H](CCC(=O)N[C@@H](CCCCN)C(=O)N[C@H](C)C(=O)N[C@H](C)C(=O)O)C(=O)O` (some centres undefined), the Activity (Escherichia coli [10]) was “No inhibition”, the Activity (Escherichia coli [11]) was “No inhibition” and the Activity (Escherichia coli [5]) was “No inhibition”. The Activity (Escherichia coli [12]) was “No inhibition”.
